Test results published in article PMC6792352, “Limited Chemical Structural Diversity Found to Modulate Thyroid Hormone Receptor in the Tox21 Chemical Library” (Environmental Health Perspectives, 2019).
Where a name gives a salt, the structure may show the parent alone.

Experiment: in vitro
Conditions: rat, gh3-tre-luc cells, AC50 (uM) modified / 1000

| SMILES | CC50 at 24 h [µM] |
| --- | --- |
| NC(=O)c1ccccc1 [Benzamide] | > 90 |
| CCCCCCCC/C=C/CCCOC(C)=O [(E)-4-Tridecen-l-yl acetate] | > 90 |
| CC[C@H]1OC(=O)C[C@@H](O)[C@H](C)[C@@H](O[C@@H]2O[C@H](C)[C@@H](O)[C@H](N(C)C)[C@H]2O)[C@@H](CCN2C[C@H](C)C[C@H](C)C2)C[C@@H](C)C(=O)/C=C/C(C)=C/[C@@H]1CO[C@@H]1O[C@H](C)[C@@H](O)[C@@H](OC)[C@H]1OC [Tilmicosin] | > 50 |
| CC(C)CCCCCCOC(=O)CCCCC(=O)OCCCCCCC(C)C [Hexanedioic acid, diisononyl ester] | > 90 |
| CC(=O)[C@@]1(O)CC[C@H]2[C@@H]3C=C(Cl)C4=CC(=O)CC[C@]4(C)[C@H]3CC[C@@]21C [Chlormadinone] | > 50 |
| Nc1cnn(-c2ccccc2)c(=O)c1Cl [Chloridazon] | > 90 |
| O=C1c2ccccc2C(=O)C1c1ccc(Br)cc1 [Bromindione] | > 50 |
| O=Cc1ccc(C(=O)O)cc1 [4-Carboxybenzaldehyde] | > 90 |
| Fc1ccccc1 [Fluorobenzene] | > 90 |
| O=C(O)C[C@H](O)C[C@H](O)/C=C/c1c(C2CC2)nc2ccccc2c1-c1ccc(F)cc1 [Pitavastatin calcium] | > 50 |
| O=C(O)c1cccc(Cl)n1 [6-Chloro-2-picolinic acid] | > 90 |
| CC(C)=CCCC(C)=CC#N [Citralva] | > 90 |
| c1cc(-c2ccncc2)ccn1 [4,4'-Bipyridine] | > 90 |
| CC(C)C[C@H](NC(=O)[C@@H](O)[C@H](N)Cc1ccccc1)C(=O)O [Ubenimex hydrochloride] | 1.62 |
| CN(C)c1ccc(C(=C2C=CC(=[N+](C)C)C=C2)c2c(O)c(S(=O)(=O)[O-])cc3cc(S(=O)(=O)O)ccc23)cc1 [Acid green 50] | 30.6 |
| O=c1[nH]c2ccc([S+]([O-])CCN3CCC(Cc4ccc(F)cc4)CC3)cc2o1 (centres unmarked) [Besonprodil] | > 90 |
| CCCCOCCOC(C)=O [2-Butoxyethyl acetate] | > 90 |
| COCC(=O)O [Methoxyacetic acid] | > 90 |
| CC(C)CCC[C@@H](C)[C@H]1CC[C@H]2[C@@H]3CC[C@@H]4C[C@H](O)CC[C@]4(C)[C@H]3CC[C@]12C [(3alpha,5beta)-Cholestan-3-ol] | > 50 |
| CCCCCCn1cc[n+](C)c1 [1-Hexyl-3-methylimidazolium trifluoromethanesulfonate] | > 90 |
| O=C(NC(=O)c1c(F)cccc1F)Nc1ccc(OC(F)(F)C(F)OC(F)(F)F)c(Cl)c1 (centres unmarked) [Novaluron] | > 50 |
| O=C1c2c(O)ccc(O)c2C(=O)c2c(NCCNCCO)ccc(NCCNCCO)c21 [Mitoxantrone dihydrochloride] | 0.988 |

| SMILES | CC50 at 24 h [µM] |
| --- | --- |
| C=C(C)c1cccc(C(=C)C)c1 [1,3-Diisopropenylbenzene] | > 90 |
| CCCCCCCCCCCCCCC1CO1 (centres unmarked) [1,2-Epoxyhexadecane] | > 90 |
| CCCCCCCCN [1-Octanamine] | > 90 |
| CCCCCCCCCCCCCC[n+]1ccccc1 [Tetradecylpyridinium bromide] | 6.51 |
| CN1C(=O)CC(c2ccccc2)C1=O (centres unmarked) [Phensuximide] | > 50 |
| O=Cc1ccccc1 [Benzaldehyde] | > 90 |
| CCCC(O)C(CC)CO (centres unmarked) [2-Ethyl-1,3-hexanediol] | > 90 |
| O=C(Cl)C(Cl)(Cl)Cl [Trichloroacetyl chloride] | > 90 |
| CCOC(=O)c1ccccc1C [Ethyl 2-methylbenzoate] | > 90 |
| N[C@@H](CSCCCO)C(=O)O [Fudosteine] | > 50 |
| CCN(CC)C(=O)Nc1ccc(OCC(O)CNC(C)(C)C)c(C(C)=O)c1 (centres unmarked) [Celiprolol hydrochloride] | > 50 |
| O=C(Cn1ccnc1[N+](=O)[O-])NCCO [Etandazole] | > 50 |
| COc1ccc(-c2coc3cc(O)ccc3c2=O)cc1 [Formononetin] | > 90 |
| O=C(O)c1ccc(NC2OC[C@@H](O)[C@H](O)[C@H]2O)cc1 (some centres unmarked) [Benaxibine] | > 50 |
| CCCCC(CC)CN (centres unmarked) [2-Ethylhexylamine] | > 90 |
| Clc1nc(C(Cl)(Cl)Cl)c(Cl)c(Cl)c1Cl [2,3,4,5-Tetrachloro-6-(trichloromethyl)pyridine] | 22.4 |
| FC1(F)C(F)(F)C(F)(F)C2(F)C(F)(F)C(F)(F)C(F)(F)C(F)(F)C2(F)C1(F)F (centres unmarked) [Perflunafene] | > 50 |
| C=CCCCCCCCCCC [1-Dodecene] | > 90 |
| Cc1c(N=C=O)cccc1N=C=O [Toluene-2,6-diisocyanate] | > 90 |
| CC12CC1(C)C(=O)N(c1cc(Cl)cc(Cl)c1)C2=O (centres unmarked) [Procymidone] | > 90 |
| CCC(=O)OCC(=O)[C@@]1(OC(=O)CC)[C@H](C)C[C@H]2[C@@H]3CCC4=CC(=O)C=C[C@]4(C)[C@@]3(F)[C@@H](O)C[C@@]21C [Dexamethasone dipropionate] | > 50 |
| O=C(O)CP(=O)(O)O [Phosphonoacetic acid] | > 50 |

| SMILES | CC50 at 24 h [µM] |
| --- | --- |
| O=C(OCc1ccccc1)C(=O)OCc1ccccc1 [Dibenzyl oxalate] | > 90 |
| COc1cc(CCN)cc(OC)c1OC [Mescaline hydrochloride] | > 100 |
| COC(=O)Nc1nc2ccc([S+]([O-])c3ccccc3)cc2[nH]1 (centres unmarked) [Oxfendazole] | > 50 |
| C/C=C/C=C/CCCCCCCO [Codlelure] | 79.4 |
| CCCOC(C)=O [Propyl acetate] | > 90 |
| CC[C@@]1(O)C(=O)OCc2c1cc1n(c2=O)Cc2cc3c(CN(C)C)c(O)ccc3nc2-1 [Topotecan hydrochloride] | > 50 |
| CCC(=O)O[C@]1(C(=O)CCl)[C@@H](C)C[C@H]2[C@@H]3CCC4=CC(=O)C=C[C@]4(C)[C@@]3(F)[C@@H](O)C[C@@]21C [Clobetasol propionate] | > 50 |
| CCCN(CCC)C(=O)Cc1c(-c2ccc(Cl)cc2)nc2ccc(Cl)cn12 [Alpidem] | > 50 |
| CN[C@@H](C)Cc1ccccc1 [S-(+)-Methamphetamine hydrochloride] | > 90 |
| CC(CCl)OC(C)CCl (centres unmarked) [bis(2-Chloro-1-methylethyl) ether] | > 90 |
| COc1cc([C@H]2Oc3cc([C@H]4Oc5cc(O)cc(O)c5C(=O)[C@@H]4O)ccc3O[C@@H]2CO)ccc1O [Silybin] | > 90 |
| C=C(C)C(=O)OCCCCCCCC(C)C [Isodecyl methacrylate] | > 90 |
| Clc1ccc(-c2ccc(Cl)c(Cl)c2Cl)c(Cl)c1Cl [Aroclor 1260] | > 90 |
| CN(C)C(=O)C1(N2CCCCC2)CCN(CC[C@@]2(c3ccc(Cl)c(Cl)c3)CN(C(=O)c3ccccc3)CCO2)CC1 [SSR 241586 HCl] | 4.07 |
| O=Cc1ccccc1Cl [2-Chlorobenzaldehyde] | > 90 |
| C[C@@H](O)[C@H]1C(=O)N2C(C(=O)O)=C([C@H]3CCCO3)S[C@H]12 [Fropenem] | > 50 |
| COCCCOc1cc(C[C@@H](C[C@H](N)[C@@H](O)C[C@H](C(=O)NCC(C)(C)C(N)=O)C(C)C)C(C)C)ccc1OC [Aliskiren hydrochloride] | > 50 |
| Cc1cn([C@H]2C=C[C@@H](CO)O2)c(=O)[nH]c1=O [Stavudine] | > 90 |
| CC(C(=O)O)c1ccc(/C=C2\CCCCC2=O)cc1 (centres unmarked) [Pelubiprofen] | > 50 |
| Cc1cc(-n2nc3ccc(Cl)cc3n2)c(O)c(C(C)(C)C)c1 [Bumetrizole] | > 50 |
| O=C1c2c(O)ccc([N+](=O)[O-])c2C(=O)c2c([N+](=O)[O-])ccc(O)c21 [1,8-Dihydroxy-4,5-dinitroanthraquinone] | 8.27 |

Same assay, conditions: rat, gh3-tre-luc cells, AC50 (uM) modified / 1000, Tox21_110001=Tox21_111349; viability, 1 nM T3 present, 24 h

| SMILES | CC50 at 24 h [µM] |
| --- | --- |
| COc1cc2c(cc1OC)[C@@]13CCN4CC5=CCO[C@H]6CC(=O)N2[C@H]1[C@H]6[C@H]5C[C@H]43 [Brucine] | > 50 |

Same assay, conditions: rat, gh3-tre-luc cells, AC50 (uM) modified / 1000, Tox21_110001=Tox21_200140; viability, 1 nM T3 present, 24 h

| SMILES | CC50 at 24 h [µM] |
| --- | --- |
| O=C(O)C(Br)CBr (centres unmarked) [2,3-Dibromopropionic acid] | > 90 |

Same assay, conditions: rat, gh3-tre-luc cells, AC50 (uM) modified / 1000, Tox21_110001=Tox21_200325; viability, 1 nM T3 present, 24 h

| SMILES | CC50 at 24 h [µM] |
| --- | --- |
| O=C(O)c1cccc(Cl)c1 [3-Chlorobenzoic acid] | > 90 |

Same assay, conditions: rat, gh3-tre-luc cells, AC50 (uM) modified / 1000, Tox21_110001=Tox21_200853; viability, 1 nM T3 present, 24 h

| SMILES | CC50 at 24 h [µM] |
| --- | --- |
| Cc1cccc(C#N)c1 [3-Methylbenzonitrile] | > 90 |

Same assay, conditions: rat, gh3-tre-luc cells, AC50 (uM) modified / 1000, Tox21_110001=Tox21_200913; viability, 1 nM T3 present, 24 h

| SMILES | CC50 at 24 h [µM] |
| --- | --- |
| O=C(O)C(Br)(Br)Br [Tribromoacetic acid] | > 90 |

Same assay, conditions: rat, gh3-tre-luc cells, AC50 (uM) modified / 1000, Tox21_110001=Tox21_201145; viability, 1 nM T3 present, 24 h

| SMILES | CC50 at 24 h [µM] |
| --- | --- |
| CC(C)OC(=O)Cc1ccccc1 [Isopropyl phenylacetate] | > 90 |

Same assay, conditions: rat, gh3-tre-luc cells, AC50 (uM) modified / 1000, Tox21_110001=Tox21_201934; viability, 1 nM T3 present, 24 h

| SMILES | CC50 at 24 h [µM] |
| --- | --- |
| CCCCSP(=O)(SCCCC)SCCCC [Tribufos] | > 90 |

Same assay, conditions: rat, gh3-tre-luc cells, AC50 (uM) modified / 1000, Tox21_110001=Tox21_201977; viability, 1 nM T3 present, 24 h

| SMILES | CC50 at 24 h [µM] |
| --- | --- |
| NNc1ccccc1 [Phenylhydrazine] | 71 |

Same assay, conditions: rat, gh3-tre-luc cells, AC50 (uM) modified / 1000, Tox21_110001=Tox21_301125; viability, 1 nM T3 present, 24 h

| SMILES | CC50 at 24 h [µM] |
| --- | --- |
| CCOP(=O)(OCC)Oc1cc(C)nc(C(C)C)n1 [Diazoxon] | > 90 |

Same assay, conditions: rat, gh3-tre-luc cells, AC50 (uM) modified / 1000, Tox21_110001=Tox21_301423; viability, 1 nM T3 present, 24 h

| SMILES | CC50 at 24 h [µM] |
| --- | --- |
| CNC(=O)Oc1ccc(N(C)C)c(C)c1 [Aminocarb] | > 90 |

Same assay, conditions: rat, gh3-tre-luc cells, AC50 (uM) modified / 1000, Tox21_110001=Tox21_302174; viability, 1 nM T3 present, 24 h

| SMILES | CC50 at 24 h [µM] |
| --- | --- |
| COc1cc2c(cc1OC)[C@@]13CCN4CC5=CCO[C@H]6CC(=O)N2[C@H]1[C@H]6[C@H]5C[C@H]43 [Brucine] | > 90 |

Same assay, conditions: rat, gh3-tre-luc cells, AC50 (uM) modified / 1000, Tox21_110001=Tox21_303018; viability, 1 nM T3 present, 24 h

| SMILES | CC50 at 24 h [µM] |
| --- | --- |
| NNc1ccccc1 [Phenylhydrazine] | 42 |
